This passage reports melting point results from a melting point compilation (Tetko et al.).

The structures appear in SMILES notation.

In turn, `NC(=O)c1c(-c2ccc(C(F)(F)F)cc2)csc1N` gave a melting point of 158 to 160 °C.

As to `O=C(O)CCNC(=O)OCc1ccccc1`, the melting point fell in the range of 104 to 108 °C.

As for `Nc1[nH]nc(-c2ccsc2)c1-c1ccc2c(c1)OCO2`, the melting point is 79 to 81 °C.

Compound `Nc1nc(Cc2ccccc2)c(-c2ccccc2)s1` yielded a melting point of 139 to 141 °C.

In turn, `O=C(c1ccncc1)c1cc(F)ccc1F` yielded a melting point of 53 to 55 °C.

Turning to `Sc1nnc(NCCCN2CCOCC2)s1`, the melting point lay in the range of 145 to 147 °C.

For the compound `COc1ccc(CCNC(C)=O)cc1S(=O)(=O)Cl`, the melting point was 76 to 78 °C.

The compound `O=C(O)Cc1ccc2c(c1)CCCC2` gave a melting point of 78 to 80 °C.

For `CC(C)(C)NC(=O)c1ccc(N)cc1`, the melting point was in the range of 124 to 126 °C.

Compound `COC(=O)c1cccc(-c2cccc(C(=O)OC)c2)c1` came in with a melting point of 99 to 101 °C.

For the compound `N#CCC(=O)c1ccc(F)cc1`, the melting point fell in the range of 84 to 88 °C.

Turning to `CCC(C)(C)c1ccc(C(=O)O)cc1`, the melting point was 103 to 105 °C.

Regarding `O=c1[nH]c2ccccc2cc1CCl`, the melting point lay within 199 to 201 °C.

Consider `N#Cc1c[nH]c2ccc(Br)cc2c1=O`, for which the melting point was 359 to 361 °C.

For `COC(=O)c1ncccc1O`, the melting point was 76 to 78 °C.

The compound `O=C(NCc1ccccc1)c1ccnc(Cl)c1` returned a melting point of 99 to 101 °C.

For `Cc1noc(C)c1C(C)C(=O)O` (stereo unspecified), the melting point fell in the range of 101 to 103 °C.

Turning to `CC(=O)N(C)c1nc(C=O)cs1`, the melting point was in the range of 164 to 166 °C.

`Cc1ccc(C)c(Sc2ncccc2C(=O)O)c1` displayed a melting point of 188 to 190 °C.

In turn, `C#CCNS(C)(=O)=O` yielded a melting point of 56 to 58 °C.

`Nc1ccc(CCC(=O)O)nc1` had a melting point of 113 to 115 °C.

The compound `Cn1cc(C=O)cn1` returned a melting point of 31 to 33 °C.

As for `CNc1ncccc1C(N)=O`, the melting point lay in the range of 181 to 183 °C.

`COc1cccc(-c2nnc(N)s2)c1` showed a melting point of 156 to 158 °C.

The compound `O=C(O)CCc1ccc(O)c(Cl)c1` had a melting point of 84 to 86 °C.

In turn, `O=Cc1cc(O)cc(Br)c1O` yielded a melting point of 145 to 147 °C.

Consider `Cc1ccc(C(=O)N(C)C)cc1N`, for which the melting point fell in the range of 97 to 99 °C.

Turning to `Fc1ccc(Oc2ccc(Cl)nn2)c(F)c1`, the melting point fell in the range of 113 to 115 °C.

`Nc1ccc(CC(=O)N2CCN(c3ncccn3)CC2)cc1` showed a melting point of 193 to 195 °C.

The compound `O=C1CCC(=O)N1CC1CO1` (stereo unspecified) had a melting point of 61 to 63 °C.

Compound `O=C(O)CCNS(=O)(=O)c1cccc(C(F)(F)F)c1` showed a melting point of 113 to 115 °C.

Compound `O=C1CC(C(=O)O)CCN1` (stereo unspecified) came in with a melting point of 164 to 166 °C.

`O=C(CCl)N1CCN(c2ccc([N+](=O)[O-])cc2)CC1` gave a melting point of 129 to 131 °C.

`CCCCc1ccc(N2CC(C(=O)O)CC2=O)cc1` (stereo unspecified) gave a melting point of 139 to 141 °C.

For `O=S(=O)(Cl)c1cnn(Cc2ccccc2)c1`, the melting point lay within 57 to 59 °C.

`O=C(O)c1cccnc1Sc1ccc2c(c1)OCCO2` gave a melting point of 228 to 230 °C.

In the case of `CC(C)C(Oc1ccccc1C#N)C(=O)O` (stereo unspecified), the melting point is 67 to 69 °C.

In the case of `Cc1ccc(-c2noc(N)n2)cc1`, the melting point is 214 to 216 °C.

`O=C(O)Cc1ccc(C(F)F)cc1` registered a melting point of 76 to 78 °C.

As for `COc1ccc2[nH]c(C)c(C(=O)CCl)c2c1`, the melting point was 224 to 226 °C.

On to `CC1C(=O)NC(=O)N1c1ccc(F)cc1` (stereo unspecified), for which the melting point lay within 187 to 189 °C.

The compound `Fc1ccc(-c2ccc(Cl)nn2)cc1` gave a melting point of 159 to 161 °C.

`O=C(O)CCCC(=O)c1ccc(Cl)c(Cl)c1` returned a melting point of 140 to 142 °C.

As to `CN(C)c1ccc(C(=N)N)c(F)c1`, the melting point is 133 to 135 °C.

The compound `O=C(O)c1cccc2c1C(=O)c1ccccc1C2=O` registered a melting point of 293 to 295 °C.

Consider `NNC(=O)Cc1cccnc1`, for which the melting point lay in the range of 99 to 101 °C.

`CCOC(=O)c1cnn(-c2cccc(N)c2)c1C(F)(F)F` gave a melting point of 87 to 89 °C.

`CN(C1CCCCC1)S(=O)(=O)c1ccc(C(=O)O)cc1` yielded a melting point of 213 to 215 °C.

As for `O=S(=O)(Cl)c1cccnc1Cl`, the melting point was in the range of 42 to 44 °C.

The compound `CCOc1ccc(-c2csc(=O)[nH]2)cc1` returned a melting point of 222 to 224 °C.

In turn, `Cn1c(C(=O)O)c(Br)c2ccccc21` came in with a melting point of 204 to 206 °C.

Compound `Cn1cnn(-c2ccc(N)cc2)c1=O` yielded a melting point of 159 to 161 °C.

Compound `NNC(=O)Cc1nc2ccccc2[nH]1` had a melting point of 177 to 181 °C.

Compound `CCNC(=O)c1ccc(Cl)nc1` yielded a melting point of 136 to 138 °C.

Turning to `COc1sc(C=O)cc1Br`, the melting point fell in the range of 115 to 117 °C.

Compound `Cc1cc(C(=O)O)nn1C(C)C1CC1` (stereo unspecified) came in with a melting point of 130 to 132 °C.

Turning to `Cc1c(O)cccc1OCCN1CCOCC1`, the melting point fell in the range of 117 to 119 °C.

`N#CCc1cnn(-c2ccccc2)n1`: the melting point lay within 65 to 67 °C.

Turning to `COc1ccc(C(=O)O)cc1C(C)C`, the melting point was in the range of 164 to 166 °C.

For the compound `Cc1ccc(-c2cn[nH]c2)cc1`, the melting point was 217 to 219 °C.

The compound `COc1ccc(C(C)=O)cc1CN1CCCCC1` yielded a melting point of 54 to 56 °C.

Compound `COc1ccccc1NS(=O)(=O)c1cc(N)ccc1N1CCCC1` registered a melting point of 159 to 161 °C.

For `O=C(Nc1sc2c(c1C(=O)O)CCC2)c1ccco1`, the melting point is 242 to 244 °C.

Take `Cc1cccc2c3c([nH]c12)C(N)CCC3` (stereo unspecified): the melting point lay in the range of 130 to 132 °C.

Compound `Cc1ccc(Nc2snc(O)c2C#N)cc1` had a melting point of 232 to 234 °C.

Compound `Cc1[nH]c(C(=O)O)c(C)c1C(=O)OC(C)C` came in with a melting point of 183 to 185 °C.

For `CCCOc1ccc(Br)cc1C=O`, the melting point lay in the range of 47 to 49 °C.

On to `Nc1cnc(-c2cccc(F)c2)nc1`, for which the melting point lay within 112 to 114 °C.

Compound `CCCSc1nsc(N)n1` registered a melting point of 54 to 56 °C.

In turn, `Nc1ccn(-c2ccncc2)n1` returned a melting point of 192 to 194 °C.

`FC(F)(F)c1ccc(OCc2ccc(Cl)nc2)cc1` had a melting point of 106 to 108 °C.

Take `O=C(O)c1ccc2nc(Cl)ccc2c1`: the melting point lay in the range of 228 to 230 °C.

For `CC(C)(C)OC(=O)N1CCCC(n2cc(C(=O)O)cn2)C1` (stereo unspecified), the melting point fell in the range of 166 to 168 °C.

Compound `C=CCNC(=O)c1cccc(C#N)c1` registered a melting point of 79 to 81 °C.

Compound `O=C1CCCC(=O)N1c1ncc(Br)s1` registered a melting point of 139 to 141 °C.

Compound `CC1=NN(C)C(=O)C1C` (stereo unspecified) had a melting point of 132 to 134 °C.

For the compound `CC(=O)c1sc(Cc2ccccc2)nc1C`, the melting point fell in the range of 53 to 55 °C.

With `Cc1nc(C(=O)O)c[nH]1`, the melting point is 239 to 241 °C.

Take `O=C(O)c1ccc(NS(=O)(=O)c2ccc(Cl)c([N+](=O)[O-])c2)cc1O`: the melting point lay in the range of 242 to 244 °C.

In the case of `CC(C)Oc1ccc(CNC(=O)CCl)cc1`, the melting point was in the range of 63 to 65 °C.

In the case of `COC(=O)c1ccc([N+](=O)[O-])cc1N`, the melting point fell in the range of 156 to 158 °C.

Take `O=C(O)c1ccc(Cl)c(S(=O)(=O)N(Cc2ccccc2)c2cccc(C(F)(F)F)c2)c1`: the melting point lay in the range of 201 to 203 °C.

Take `O=C(O)c1cccc(S(=O)(=O)Nc2ccc3c(c2)OCO3)c1`: the melting point lay within 249 to 251 °C.

The compound `CC(C)(C(=O)O)c1ccc(F)cc1` came in with a melting point of 89 to 91 °C.

In the case of `CC(C)C(Br)C(=O)NC1CCCCCC1` (stereo unspecified), the melting point lay in the range of 119 to 121 °C.

In turn, `Cc1nn(-c2ccccc2)c(CCl)c1C#N` showed a melting point of 130 to 132 °C.

`Cc1cc2oc(=O)cc(CCl)c2cc1Cl` came in with a melting point of 218 to 220 °C.

In turn, `Clc1nccc2ccn(Cc3ccccc3)c12` showed a melting point of 75 to 77 °C.

In turn, `Sc1nnc(C2CC2)o1` gave a melting point of 131 to 133 °C.

For the compound `COc1ccc(OCCCC(=O)O)cc1`, the melting point fell in the range of 101 to 105 °C.

Take `Fc1ccc(-n2ncc3c(Cl)ncnc32)cc1`: the melting point lay in the range of 154 to 156 °C.

`COCc1ccccc1CNC(=O)CCl` registered a melting point of 51 to 53 °C.

In turn, `NCC1(C(N)=O)CCCC1` came in with a melting point of 61 to 63 °C.

Regarding `O=Cc1ccc(N2CCNC(=O)C2)cc1`, the melting point fell in the range of 192 to 194 °C.

As for `Cn1cc(CO)c(-c2ccccc2)n1`, the melting point is 107 to 109 °C.

`CCNC(=O)NCCO`: the melting point was in the range of 53 to 55 °C.

Compound `Cc1cc(C)nc(-n2nc(N)cc2C)n1` registered a melting point of 134 to 136 °C.

The compound `N#Cc1cccnc1Oc1ccc(N)cc1` gave a melting point of 152 to 154 °C.

Compound `CC(C)(C)NS(=O)(=O)c1cc(C(=O)O)ccc1Br` showed a melting point of 217 to 219 °C.

For the compound `O=[N+]([O-])c1cc(F)c(F)cc1[N+](=O)[O-]`, the melting point was 80 to 82 °C.

Turning to `Cc1cc(C)nc(-n2cc(C(=O)O)c(C)n2)n1`, the melting point lay in the range of 287 to 289 °C.

With `O=C(O)c1ccc(-c2ccc(Cl)c(Cl)c2)s1`, the melting point fell in the range of 253 to 255 °C.

As to `CC(C(=O)O)c1ccc(S(=O)(=O)N(C)C)cc1` (stereo unspecified), the melting point lay in the range of 122 to 124 °C.

The compound `CCCc1c(C(=O)O)nnn1-c1cccc(Cl)c1` displayed a melting point of 129 to 131 °C.

In the case of `Cc1ccc(-c2nc(N)sc2C)s1`, the melting point lay within 127 to 129 °C.

In the case of `Nc1cnn(-c2nccs2)c1`, the melting point lay within 89 to 91 °C.

With `Cc1cc(F)c2c(c1)C(=O)C(=O)N2`, the melting point fell in the range of 225 to 227 °C.

The compound `N#Cc1ccc(-c2nc3ccccc3[nH]2)cc1` returned a melting point of 326 to 328 °C.

The compound `O=c1c2sccc2ncn1CCO` showed a melting point of 179 to 181 °C.

With `Cc1cc(N)nn1-c1ccc(Cl)cc1Cl`, the melting point fell in the range of 101 to 103 °C.

As for `NCCS(=O)(=O)c1ccc(Br)cc1`, the melting point fell in the range of 87 to 89 °C.

With `Cc1cccc(NC(=O)CCN)n1`, the melting point was in the range of 105 to 106 °C.

Regarding `NC(CC(=O)N1CCOCC1)=NO`, the melting point lay in the range of 147 to 149 °C.

Regarding `C=CC(=O)ON=C(N)c1cccc(Cl)c1`, the melting point is 114 to 116 °C.

`CCOC(=O)C(=O)c1nccn1Cc1ccccc1` yielded a melting point of 57 to 59 °C.

The compound `Sc1nc2ccccc2n1CCc1ccccc1` registered a melting point of 177 to 179 °C.

Take `CSc1ccc(N)cc1F`: the melting point lay in the range of 49 to 51 °C.

Consider `CNC(c1ccc(Cl)cc1)c1cccnc1` (stereo unspecified), for which the melting point was in the range of 44 to 46 °C.

The compound `NC(CC(=O)O)C1CC1` (stereo unspecified) registered a melting point of 209 to 211 °C.

For the compound `CCOCc1ccc(CNC(=O)CCl)cc1`, the melting point lay within 86 to 88 °C.

Turning to `O=S1(=O)CC(SCc2ccccc2)c2ccccc21` (stereo unspecified), the melting point was 72 to 74 °C.

The melting point is the temperature of the solid-liquid transition.
